Reference: patent US7981915B2, “Methods for modulating PPAR biological activity for the treatment of diseases caused by mutations in the CFTR gene” (Beth Israel Deaconess Medical Center, priority 2003, dated 2011)
Each block holds one molecule with its values, some of them ahead of it.

How the values were obtained:
IL-6 [1] = test: LPS-induced IL-6 secretion from peritoneal macrophages after in vivo DHA pretreatment; parameters: species or system mice; details: CF peritoneal macrophages; oral DHA pretreatment 40 mg/day for 10 days
Protocol: (§1) Cftr^−/− exon 10 knockout mice and wild-type (WT) littermates were maintained on peptamen (as described above). Peritoneal macrophages were induced by intraperitoneal injection of 2 ml thioglycollate broth followed by harvesting of the macrophages 4 days after injection. For studies determining the effect of in vivo pretreatment of DHA, cftr^−/− mice were given 40 mg DHA/day for 10 days. For in vitro experiments, harvested macrophages were plated in RPMI medium with 10% serum and incubated for 12 hours with media alone or with DHA (5 μM), EPA (5 μM) the PPAR agonist Wy14643 (50 μM) or the PPAR agonist rosiglitazone (10 μM). The cells were washed and then stimulated with 0-10000 ng/ml LPS for 4.5 hours. TNFα and IL-6 secretion were measured by ELISA. Fatty acids were analyzed by GC/MS.

PPARα mRNA [2] = test: Liver PPARα mRNA by quantitative RT-PCR (DSS colitis / DHA); format: in vivo, mice
Protocol: (§2) On day 40, WT and cftr^−/− mice were fed Peptamen alone or Peptamen plus 125 mg DSS/day (MP Biomedicals, Aurora, Ohio) for 5 days followed by 9 days of 85 mg DSS/day as previously described for the genesis of bile duct injury (Blanco, P. G. et al., supra). The amount of DSS in Peptamen was equally measured for WT and cftr^−/− mice. The volume of Peptamen administered (20 ml) was measured on a daily basis. There was no difference in Peptamen intake between WT and cftr^−/− mice. The mean weight of WT mice at the start of DSS treatment was 20.5 g (range 14.5-26 g), and the mean weight of cftr^−/− mice was 18.9 g (range 15.5-23.5 g). These values were not statistically different between WT and cftr^−/− mice. […] There was no difference in weight lost during DSS treatment comparing WT and cftr^−/− mice. Additional mice from these groups were given DHA (Pure Encapsulations, Sudbury, Mass.) prepared as a stable emulsion in Peptamen, at a dose of 40 mg per day for 5 days before and continued for 14 days during administration of the DSS. Bile duct injury was quantified, as previously described, by examining histological features of epithelial injury, bile duct proliferation, and bile duct angulation (Blanco et al., supra). To determine whether a complete absence of PPARα was responsible for the bile duct injury, 5 PPARα^−/− mice were treated with 5% DSS in drinking water for 7 days to induce colitis (Okayasu et al., Gastroenterology, 98:694-702, 1990). PPARγ^−/− mice are not viable and thus were not tested.
After each specific treatment, the mice were euthanized with carbon dioxide. Tissues were snap frozen in RNAlater (Ambion, Austin, Tex.) for RNA extraction (Barrett et al., Nat Genet, 23:32-33, 1999). PPAR mRNA analyses were performed by quantitative RT-PCR. Total RNA from cftr^−/− and WT tissues was prepared using the RNA STAT-60 isolation reagent (Tel-Test, Friendswood, Tex.) and quantified spectrophotometrically. Quantitative PCR was performed in an ABI Prism 7700 Sequence Detector (Applied Biosystems, Foster City, Calif.) using a RT-PCR master mix kit (Applied Biosystems) according to the manufacturer's instructions. PCR primers and PPAR FAM-labeled TaqMan probes were from Integrated DNA Technologies (Coralville, Iowa). The oligonucleotide sequences used for PPARγ were the following: PPARγ exon 2 FW 5′-TCACAAGAGCTGACCCAATGGT-3′ (SEQ ID NO: 1), PPARγ exon 2 RV 5′-ATAATAAGGTGGAGATGCAGGTTCTAC-3′ (SEQ ID NO: 2), PPARγ probe 5′-FAM-CTGAAGCTCCAAGAATACCAAAGTGCGATC-TAMRA-3′ (SEQ ID NO: 3). The sequences used for PPARα were the following: PPARα FW 5′-TATTCGGCTGAAGCTGGTGTAC-3′ (SEQ ID NO: 9), PPARα RV 5′-CTGGCATTTGTTCCGGTTCT-3′ (SEQ ID NO: 10), PPARα probe 5′-CTGAATCTTGCAGCTCCGATCACACTTG-3′ (SEQ ID NO: 11). Levels of mRNA were normalized to 18s ribosomal RNA (ribosomal RNA control reagents, Applied Biosystems) quantified simultaneously to PPAR in a multiplex RT-PCR reaction. Thermocycler conditions used were—Stage 1: 48° C./30 minutes; Stage 2: 95° C./10 minutes; Stage 3: 40 cycles of 95° C./15 seconds and 60° C./60 seconds. All samples were analyzed in duplicate.

TNFα = test: LPS-induced TNFα secretion from peritoneal macrophages incubated in vitro with PPAR agonists; format: cell-based, mice; details: in vitro 12 hours, DHA 5 μM, Wy14643 50 μM, rosiglitazone 10 μM
Protocol: as §1

PPARα mRNA [3] = details: rat liver; cited from earlier work
IL-6 [4] = test: LPS-induced IL-6 secretion from peritoneal macrophages incubated in vitro with PPAR agonists; format: cell-based, mice; details: CF macrophages; in vitro 12 hours; Wy14643 50 μM, rosiglitazone 10 μM; 100 ng/ml LPS
PPARα = molecular target: T1, PPARα (Mus musculus, UniProt P23204); test: Western blot of PPARα in nuclear and cytosolic liver extracts; format: in vivo; details: 3 mice per group
T1 construct: from tissue; host or cells: mouse liver homogenate (WT and cftr-/- C57/BL6)
T1 sequence (P23204 1-468): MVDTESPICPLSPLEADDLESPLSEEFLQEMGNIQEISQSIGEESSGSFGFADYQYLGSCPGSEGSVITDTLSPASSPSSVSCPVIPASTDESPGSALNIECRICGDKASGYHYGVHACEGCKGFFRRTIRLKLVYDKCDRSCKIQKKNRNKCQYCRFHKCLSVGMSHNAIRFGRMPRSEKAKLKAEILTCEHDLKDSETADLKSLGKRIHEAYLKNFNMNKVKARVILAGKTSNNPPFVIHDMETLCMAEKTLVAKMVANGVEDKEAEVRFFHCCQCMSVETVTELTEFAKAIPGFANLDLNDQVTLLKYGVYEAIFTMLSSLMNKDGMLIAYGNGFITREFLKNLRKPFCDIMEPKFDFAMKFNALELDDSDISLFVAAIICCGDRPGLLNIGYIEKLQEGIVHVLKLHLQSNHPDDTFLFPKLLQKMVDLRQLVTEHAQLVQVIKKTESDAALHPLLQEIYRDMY
Protocol: as §2, with “Additional mice from these groups were given DHA (Pure Encapsulations, Sudbury, Mass.) prepared as a stable emulsion in Peptamen, at a dose of 40 mg per day for 5 days before and continued for 14 days during administration of the DSS.” left out, “To determine whether a complete absence of PPARα was responsible for the bile duct injury, 5 PPARα^−/− mice were treated with 5% DSS in drinking water for 7 days to induce colitis (Okayasu et al., Gastroenterology, 98:694-702, 1990). PPARγ^−/− mice are not viable and thus were not tested.” left out
For western blotting, nuclear and cytoplasmic extracts were prepared as described previously (Ollero et al., supra). […] Protein concentration was measured in all samples by the Bradford protein assay (Bio-Rad, Hercules, Calif.). […]

PPARγ mRNA = test: Liver PPARγ mRNA by quantitative RT-PCR (DSS colitis / DHA); format: in vivo; details: WT and cftr−/− mice; DSS in the absence or presence of DHA; to undetectable levels
Protocol: On day 40, WT and cftr^−/− mice were fed Peptamen alone or Peptamen plus 125 mg DSS/day (MP Biomedicals, Aurora, Ohio) for 5 days followed by 9 days of 85 mg DSS/day as previously described for the genesis of bile duct injury (Blanco, P. G. et al., supra). The amount of DSS in Peptamen was equally measured for WT and cftr^−/− mice. The volume of Peptamen administered (20 ml) was measured on a daily basis. There was no difference in Peptamen intake between WT and cftr^−/− mice. The mean weight of WT mice at the start of DSS treatment was 20.5 g (range 14.5-26 g), and the mean weight of cftr^−/− mice was 18.9 g (range 15.5-23.5 g). […] Bile duct injury was quantified, as previously described, by examining histological features of epithelial injury, bile duct proliferation, and bile duct angulation (Blanco et al., supra). […]
After each specific treatment, the mice were euthanized with carbon dioxide. […] PPAR mRNA analyses were performed by quantitative RT-PCR. Total RNA from cftr^−/− and WT tissues was prepared using the RNA STAT-60 isolation reagent (Tel-Test, Friendswood, Tex.) and quantified spectrophotometrically. Quantitative PCR was performed in an ABI Prism 7700 Sequence Detector (Applied Biosystems, Foster City, Calif.) using a RT-PCR master mix kit (Applied Biosystems) according to the manufacturer's instructions. […] All samples were analyzed in duplicate.

[5] = WT mice, single treatment, compared to untreated
[6] = cftr−/− mice, single treatment, compared to untreated

Molecule: CC/C=C\C/C=C\C/C=C\C/C=C\C/C=C\C/C=C\CCC(=O)O [DHA, Docosahexaenoic Acid]
LPS-induced IL-6 secretion (IL-6 [1]): no effect | increase in liver PPARα mRNA (PPARα mRNA [2]; WT mice, combination of DSS and DHA, compared to no DSS and no DHA): 10.4 fold | increase in liver PPARα mRNA (PPARα mRNA [2]; [5]): 12.1 fold | increase in liver PPARα mRNA (PPARα mRNA [2]; cftr−/− mice, combination of DSS and DHA, compared to DSS only, not statistically significant): 2.7 fold | increase in liver PPARα mRNA (PPARα mRNA [2]; cftr−/− mice, combination of DSS and DHA, compared to no DSS and no DHA): 4.3 fold | increase in liver PPARα mRNA (PPARα mRNA [2]; [6]): 7.0 fold

Molecule: CC/C=C\C/C=C\C/C=C\C/C=C\C/C=C\CCCC(=O)O [EPA, eicosapentaenoic acid]
decrease in LPS induced TNFα secretion (TNFα; CF macrophages, EPA 5 μM, 100 ng/ml LPS): no effect

Molecule: Cc1cccc(Nc2cc(Cl)nc(SCC(=O)O)n2)c1C [Wy14643]
decrease in LPS induced TNFα secretion (TNFα; WT macrophages): did not alter secretion | PPARα mRNA levels (PPARα mRNA [3]): increase PPARα mRNA levels

Molecule: CN(CCOc1ccc(CC2SC(=O)NC2=O)cc1)c1ccccn1 (stereo not shown) [rosiglitazone]
decrease in LPS induced TNFα secretion (TNFα; WT macrophages): 18% | decrease in LPS induced IL-6 secretion (IL-6 [4]): no effect

PPARα nuclear/cytoplasmic ratio, liver (densitometry) (PPARα; WT mice): 1.06±0.05 | PPARα nuclear/cytoplasmic ratio, liver (densitometry) (PPARα; cftr−/− mice): 0.61±0.02
Molecule: dextran sodium sulfate [DSS]
liver PPARγ mRNA levels (PPARγ mRNA): markedly suppressed | increase in liver PPARα mRNA (PPARα mRNA [2]; [5]): 9.3 fold | increase in liver PPARα mRNA (PPARα mRNA [2]; [6]): no significant change
